Tests used:
[1] = system: receptors of tyrosine kinase (RTKs) in BT474 cells; assay: phospho-RTK arrays and RTK qPCR in BT474 cells; type: cell-based, human
Experimental: FIG. 19B depicts a photomicrograph of BT474 cells were treated with 6 μM compound A over a time course up to 24 hours as indicated. Cell lysates were prepared, and 200 μg of total protein were hybridized to arrays containing probes for 42 different receptors of tyrosine kinase (RTKs).
FIG. 19C depicts a photomicrograph of BT474 cells were treated with 6 μM compound A over a time course up to 24 hours as indicated.
FIG. 19D depicts a bar-graph representing the amount of RTK mRNA as identified using real-time qPCR analysis of the indicated RTKs in RNA collected from BT474 cells treated with either DMSO or 10 μM compound A for 6 hours.
Immunoprecipitation, immunoblotting, and RTK assays were performed according to published methods. Primary antibodies included AKT, pAKT^S473, pAKT^T308, ERK, pERK^T202/Y204, pHER2^Y1248, pHER3^Y1197, pHER3^Y1222, pHER3^Y1289, S6, pS6^S240/244, p27, pRb^S780, FoxO1, FoxO3a, MEK1/2 (Cell Signaling Technology, Danvers, Mass., USA), p85, 4G10 pTyr (Millipore, Billerica, Mass., USA), HER3, CyclinD1, RhoA, HDAC3 (Santa Cruz Biotechnology, Santa Cruz, Calif., USA), PARP (BD Transduction Laboratories), β-actin (Sigma, St. Louis, Mo., USA), and HER2 (Neomarkers, division of Thermo Scientific, Freemenot, Calif., USA). […] Immunoreactive signals were detected by enhanced chemilluminsecence (Pierce, Rockford, Ill., USA). […]

[2] = system: HCC1937 human breast cancer cells; assay: HCC1937 cell viability, alamar blue assay; type: cell-based; settings: read-out: growth inhibition IC50
Experimental: FIG. 1B. siRNA screen to identify kinases that potentially compensate for PI3K inhibition. HCC1937 cells were seeded in triplicate in a 96-well plate and treated with DMSO or the indicated concentration of compound A for 72 hours. Cell viability was measured by the alamar blue assay.
The purpose of the present study is to identify kinases and kinase-regulated signaling pathways that compensate for PI3K inhibition in human breast cancer cells. To this end, siRNA screen is employed targeting 779 human kinases in order to determine if downregulation of specific kinases increases the sensitivity of HCC1937 human breast cancer cells to the PI3K inhibitor compound A, which a compound of formula I and of Table 1. […] Following reverse transfection with the siRNA library, cells are treated with either DMSO or 10 μM compound A for 72 hours in a medium containing 2.5% fetal bovine serum (FIGS. 1A and 2) and the alamar blue assay is used to measure cell viability FIG. 1B. […] HCC1937 cells were treated with 10 μM compound A in medium containing 2.5% FBS for 0, 2, 8, or 24 hours. RNA was isolated with Trizol and purified using the RNeasy column (Qiagen). Gene expression from three independent experiments was measured using the Gene titan 3′ microarray. *, p<0.05; **, p<0.01 versus 0 hours, as shown in FIG. 5.

[3] = system: p85-associated pTyr proteins in BT474 cells; assay: p85 immunoprecipitation with pTyr / HER3 immunoblot; type: cell-based, human; settings: BT474, 0-20 μM, 24 hours
Experimental: FIG. 13C depicts a photomicrrograph of immunoblots of cell lysates from BT474 cells which were treated with 0-20 μM compound A for 24 hours. Cells were then lysed, and 0.5 mg of lysate subjected to immunoprecipitation (IP) with a p85 antibody followed by p85 and pTyr.
FIG. 13D depicts a photomicrrograph of immunoblots of cell lysates from BT474 cells which were treated with 0-20 μM compound A for 24 hours. Cells were then lysed, and 0.5 mg of lysate subjected to immunoprecipitation (IP) with a p85 antibody followed by p85 and HER3.
Immunoprecipitation, immunoblotting, and RTK assays were performed according to published methods. […] Immunoreactive signals were detected by enhanced chemilluminsecence (Pierce, Rockford, Ill., USA). […]
In HER2 overexpressing cells, although not bound by any particular theory, it is believed that the main mechanism of activation of PI3K is the coupling of pHER3 to an SH2 domain in the N-terminus of p85, the regulatory subunit of PI3K. […] Consistent with previous studies, the p85-associated approximately 200-kDa band was also detected with HER3 and pHER3^Y1197 antibodies as shown in FIGS. 13D and 13F. […]

Q: Which results are given for COc1ccc(Cl)c(Nc2nc3ccccc3nc2NS(=O)(=O)c2cccc(NC(=O)C(C)(C)N)c2)c1 [Compound A]?
A: phospho-RTK arrays ([1]; BT474, 6 μM, 24-h time course): increase in not only HER3, but also multiple other RTKs; RTK mRNAs by qPCR ([1]; BT474, 10 μM, 6 hours): increase in ERBB4, IGF-IR, InsR, EphA1, FGFR2, and FGFR3 mRNAs; IC50 [2]: 10 µM; p85-associated pTyr band [3]: dose-dependent increase of approximately 200-kDa main pTyr band

Source: US9011863B2, “Combinations of kinase inhibitors for the treatment of cancer” (Exelixis, Inc., priority 2010, dated 2015)
